Measured values as given in PubChem BioAssay (NCI).
Where “and” joins values, the source holds several entries; their conditions need not be identical. Identical values can stand only once.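 Cultured in 96-well plates, cells were exposed to test compound for 48 hours across five concentrations. GI50: concentration for 50% inhibition of growth. At the TGI there is no net growth.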

Experiments:
Assay in all cases: NCI-60 cell line screen, 48 h
[1] = test system: SNB-19 CNS
[2] = test system: SK-MEL-28 melanoma
[3] = test system: HCC-2998 colon
[4] = test system: NCI-H23 lung
[5] = test system: RPMI-8226 leukemia
[6] = test system: IGROV1 ovarian
[7] = test system: 786-0 renal
[8] = test system: NCI-H226 lung
[9] = test system: SN12C renal
[10] = test system: UO-31 renal

Row | SMILES | TGI [1] | TGI [2] | TGI [3] | TGI [4] | TGI [5] | TGI [6] | TGI [7] | TGI [8] | TGI [9] | TGI [10] | GI50 [1] | GI50 [2] | GI50 [3] | GI50 [4] | GI50 [5] | GI50 [6] | GI50 [7] | GI50 [8] | GI50 [9] | GI50 [10]
1 | O=C(O)c1cc(-c2ccncc2)nc2ccccc12 | > 100 µM | > 100 µM | > 100 µM | > 100 µM | > 100 µM | > 100 µM | > 100 µM | > 100 µM | > 100 µM | > 100 µM | – | – | – | – | – | – | – | – | – | –
2 | COc1ccc2c(c1)Oc1cc(O)ccc1[C@@H]2c1ccccc1C(=O)NC(C)c1ccccc1 (stereo not given in full) | 32.7 µM | 31.3 µM | 26.6 µM | 35.5 µM | 39.1 µM | 41.3 µM | 27.9 µM | 35.4 µM | 28.6 µM | 34.1 µM | – | – | – | – | – | – | – | – | – | –
3 | CC1(O)CC(c2nc(-c3ccc4ccc(-c5ccccc5)nc4c3)c3c(N)nccn23)C1 (stereo not given) | > 100 µM | 44.3 µM and > 10 µM | 27.3 µM and > 10 µM | > 80.8 µM | 31.9 µM and > 10 µM | > 100 µM | 53.7 µM and > 10 µM | 49.7 µM and > 10 µM | > 80.9 µM | > 76.3 µM | 19.8 µM and > 10 µM | 12 µM and > 10 µM | 6.71 µM and > 10 µM | 8.83 µM and 5.03 µM | 6.55 µM and 3.98 µM | 19.1 µM and > 10 µM | 15 µM and > 10 µM | 3.72 µM and 3.12 µM | 9.64 µM and > 10 µM | 3.6 µM and 1.65 µM
4 | Nc1nc(N)c2c(n1)NC(c1ccc(F)cc1)C1CCc3ccccc3C1=N2 (stereo not given) | 24.8 µM | 19.7 µM | 6.67 µM | 16.6 µM | 5.11 µM | 24.1 µM | 20.1 µM | 24.5 µM | 21.6 µM | 17.3 µM | 12 µM | 7.16 µM | 2.44 µM | 4.06 µM | 1.81 µM | 7.79 µM | 6.9 µM | 5.97 µM | 7.8 µM | 3.34 µM
5 | Oc1ccccc1CNCC12CC3CC(CC(C3)C1)C2 | > 100 µM | 52.7 µM | 26.9 µM | > 100 µM | 45 µM | > 100 µM | 33.5 µM | > 100 µM | > 100 µM | > 100 µM | 60.3 µM | 23.6 µM | 12.2 µM | 32.4 µM | 18.1 µM | 41.8 µM | 16.2 µM | 68.5 µM | 32.6 µM | 20.3 µM
6 | COC(=O)CCC1CCC(c2cc(F)ccc2F)(S(=O)(=O)c2ccc(Cl)cc2)CC1 (stereo not given) | > 100 µM | > 100 µM | > 100 µM | > 100 µM | > 100 µM | > 100 µM | > 100 µM | > 100 µM | > 100 µM | > 100 µM | > 100 µM | > 100 µM | > 100 µM | 42.5 µM | 41.9 µM | > 100 µM | > 100 µM | 86.8 µM | > 100 µM | 28 µM
7 | Oc1ccccc1C=Nc1nc(SCc2ccccc2)nc2[nH]ncc12 | > 100 µM | > 100 µM | > 100 µM | > 100 µM | > 100 µM | > 100 µM | > 100 µM | > 100 µM | > 100 µM | > 100 µM | 49.5 µM | 82.8 µM | 47.9 µM | 61.2 µM | 30.8 µM | > 100 µM | 89.4 µM | 54.3 µM | > 100 µM | 94.8 µM
8 | CCCCCCCCCCC(C(O)c1ccccc1)N1CCCCC1 (stereo not given) | 3.95 µM | 3.32 µM | 3.07 µM | 5.97 µM | 4.34 µM | 3.15 µM | 3.25 µM | 12.4 µM | 10.4 µM | 2.84 µM | 1.84 µM | 1.83 µM | 1.61 µM | 2.27 µM | 1.9 µM | 1.5 µM | 1.78 µM | 2.91 µM | 2.55 µM | 1.24 µM
9 | CCN1C(=O)N(c2ccccc2)C2NC(=S)N(/N=C/C=C/c3ccccc3)C21 (stereo not given) | > 100 µM | > 100 µM | > 100 µM | > 100 µM | > 100 µM | > 58.2 µM | > 100 µM | > 100 µM | > 100 µM | > 100 µM | 0.472 µM | 1.74 µM | 0.399 µM | 0.569 µM | 0.451 µM | 0.599 µM | 0.521 µM | 2.79 µM | 0.742 µM | 0.499 µM
10 | O=c1[nH]c(=O)c2cc(C3CC(O)C(CO)O3)ccc2[nH]1 (stereo not given) | > 100 µM | > 100 µM | > 100 µM | > 100 µM | > 100 µM | > 100 µM | > 100 µM | > 100 µM | > 100 µM | > 100 µM | > 100 µM | > 100 µM | > 100 µM | > 100 µM | > 100 µM | > 100 µM | > 100 µM | > 100 µM | > 100 µM | > 100 µM
11 | Fc1ccccc1C1SCc2nc3ccccc3n21 (stereo not given) | > 100 µM | > 100 µM | > 100 µM | > 100 µM | > 100 µM | > 100 µM | > 100 µM | > 100 µM | > 100 µM | > 100 µM | – | – | – | – | – | – | – | – | – | –
